Data on ten compounds can be found in US20050272647A1, “Arthrodial cartilage extracellular matrix degradation inhibitor” (priority 2002, published 2005).

As a reminder, the IC50 is the concentration at which inhibition is half-maximal. As a reminder, the inhibition is the percentage by which the read-out fell short of the control.

In one test the test system is HDAC. The settings on record: literature value, cited from earlier work; for IC50: read-out: HDAC inhibitory activity (IC50 value); for HDAC inhibitory activity (order of magnitude): Nat. Rev. Drug Discov. 2002.
Test [1] relates to rabbit knee articular cartilage primary culture cells. Put plainly: PG destruction inhibitory activity in rabbit cartilage primary culture cell (stimulation with retinoic acid). The settings on record: Oryctolagus cuniculus, 48 h, read-out: PG degradation inhibition (%).
Protocol: After a rabbit (Japanese white race, male, 1.0 to 1.5 kg) was killed under excessive anesthesia, the knee joint was taken out and the cartilage layer on the articular surface was abraded and cut finely. […] After 3 days, the medium was replaced by 200 μl of DMEM/10% FBS medium containing 50 μg/ml ascorbic acid (hereinafter referred to as ascorbic acid medium) and two days of culture was further repeated twice. Thereafter, the rabbit knee articular cartilage primary culture cells were cultured in 200 μl of the ascorbic acid medium containing Na2 35SO4 of a final concentration of 10 μCi/ml for 3 days to achieve labeling, followed by washing with 200 μl of the ascorbic acid medium three times and 1 day of culture in 200 μl of the ascorbic medium. The culture was stimulated with all-trans retinoic acid (manufactured by Sigma) of a final concentration of 1 μM. A culture supernatant after 48 hours was recovered in an each amount of 20 μl and radioactivity was measured using Topcount (manufactured by Packard). The test compound was added simultaneously with the start of the stimulation and a PG degradation inhibitory activity was calculated as percentage where a group to which retinoic acid was not added was defined as 100% and a group to which retinoic acid was added was defined as 0%.
For test [2], the system named is rabbit cartilage primary culture cells. The experiment in a line: PG destruction inhibitory activity in rabbit cartilage primary culture cell (stimulation with IL-1). The following applies: Oryctolagus cuniculus, 48 h, read-out: PG degradation inhibition (%).
Protocol: After a rabbit (Japanese white race, male, 1.0 to 1.5 kg) was killed under excessive anesthesia, the knee joint was taken out and the cartilage layer on the articular surface was abraded and cut finely. […] After 3 days, the medium was replaced by 200 μl of DMEM/10% FBS medium containing 50 μg/ml ascorbic acid (hereinafter referred to as ascorbic acid medium) and two days of culture was further repeated twice. Thereafter, the rabbit knee articular cartilage primary culture cells were cultured in 200 μl of the ascorbic acid medium containing Na2 35SO4 of a final concentration of 10 μCi/ml for 3 days to achieve labeling, followed by washing with 200 μl of the ascorbic acid medium three times and 1 day of culture in 200 μl of the ascorbic medium.
They were stimulated with human IL-1β (manufactured by R&D System) of a final concentration of 10 ng/ml. A culture supernatant after 48 hours was recovered in an each amount of 20 μl and radioactivity was measured using Topcount (manufactured by Packard). The test compound was added simultaneously with the start of the stimulation and a PG degradation inhibitory activity was calculated as percentage where a group to which IL-1 was not added was defined as 100% and a group to which IL-1 was added was defined as 0%.
Test [3] relates to histone deacetylase fraction. The experiment in a line: HDAC inhibitory activity, [3H]acetylhistone and histone deacetylase fraction (method of Yoshida et al.). The test is classed as biochemical. The settings on record: at 30 nM.
Protocol: Specifically, the measurement can be conducted, using [^3H]acetylhistone and a histone deacetylase fraction prepared by the method described in the above reference, adding a test compound to a reaction solution containing [^3H]acetylhistone and DTT, mixing the histone deacetylase fraction after 1 hour of pre-incubation at room temperature, reacting them for 2 hours at room temperature, adding 1M hydrochloric acid and ethyl acetate thereto, and then measuring radioactivity in the ethyl acetate layer separated by centrifugation by a scintillation counter.

Structures are written as SMILES. Where a name gives a salt, the structure may show the parent alone.

On to `O=C(/C=C/c1ccc(CN(CCO)CCc2c[nH]c3ccccc23)cc1)NO` [NVP-LAQ824], for which the IC50 with HDAC was 30 nM. Besides, in test [1], the inhibition at 0.03 µM amounted to 26% and the inhibition at 0.3 µM was 90%.
As to `CC(/C=C/C(=O)NO)=C\[C@@H](C)C(=O)c1ccc(N(C)C)cc1` [Trichostatin A], the IC50 with HDAC is 2.1 nM. For the same compound, in test [1], the inhibition at 0.1 µM was determined as 40% and the inhibition at 1 µM turned out to be 58%.
For the compound `C/C=C1\NC(=O)[C@H]2CSSCC/C=C/[C@H](CC(=O)N[C@H](C(C)C)C(=O)N2)OC(=O)[C@H](C(C)C)NC1=O` [FK228], in test [2], the inhibition at 0.03 µM was found to be 97%. Further, in test [1], the inhibition at 0.01 µM was 39% and the inhibition at 0.1 µM stood at 97%.
For the compound `CC1NC(=O)CC2/C=C/CCSSCC(NC1=O)C(=O)NC(C(C)C)C(O)CC(=O)O2` (centres unmarked) [Compound A], in test [3], the HDAC inhibition entry is reported as “about 85%”. For the same compound, in test [2], the inhibition at 0.0003 µM is 6%, the inhibition at 0.003 µM came to 39% and the inhibition at 0.03 µM stood at 61%. In test [1], the inhibition at 0.001 µM was determined as 20%, the inhibition at 0.01 µM was 51%, the inhibition at 0.1 µM stood at 93% and the inhibition at 1 µM was determined as 98%.
In the case of `CCC(=O)CCCCC[C@@H]1NC(=O)[C@H]2CCCCN2C(=O)[C@H]([C@@H](C)CC)NC(=O)[C@H](Cc2cn(OC)c3ccccc23)NC1=O` [Apicidin], in test [1], the inhibition at 0.03 µM was 25% and the inhibition at 0.3 µM worked out at 92%.
`CCCC(=O)O` [Butyric acid (Na salt), Butyric acid]: the IC50 in the test with HDAC was 280000 nM. The inhibition at 5000 µM in test [2] was 78%. Besides, in test [1], the inhibition at 300 µM was determined as 27% and the inhibition at 3000 µM amounted to 93%.
Regarding `Nc1ccccc1NC(=O)c1ccc(CNC(=O)OCc2cccnc2)cc1` [MS-27-275], the IC50 in the test with HDAC was 2000 nM.
In the case of `CCCC(CCC)C(=O)O` [Valproic acid (Na salt), Valproic acid], in test [1], the inhibition at 300 µM amounted to 49%, the inhibition at 1000 µM is 46% and the inhibition at 3000 µM was 79%.
Regarding `CCCC(=O)O` [butyric acid], the “HDAC inhibitory activity (order of magnitude)” value in the test on HDAC was “mM order”.
With `CCCC(CCC)C(=O)O` [Valproic acid], the “HDAC inhibitory activity (order of magnitude)” value with HDAC was “mM order”.
